Laboratory results: US8557960B2, “Peptide for augmenting and expression of BDNF and pharmaceutical composition for prevention and treatment of neurodegenerative diseases including Alzheimer's disease or Parkinson's disease, comprising the same” (Sungkyunkwan University, priority 2009, dated 2013)

system: BDNF; assay: Assay for BDNF expression in dopamine-reactive human cell line SH-SY5Y (Western blotting); type: cell-based; conditions: SH-SY5Y cells, 12 hrs treatment, FIG. 2
Description: SH-SY5Y cells were seeded at a density of 2×10^5 cells/well into 6-well plates (NUNC) and incubated at 34° C. for 12 hrs in a 5% CO2 incubator and then for an additional 12 hrs in the presence of one of NP 2 to 9 at a concentration of 1 pM, 10 pM, 100 pM, 1 nM, 10 nM, 100 nM, or 1 μM. The cells in each well were washed twice with 1 mL of 1×PBS […], treated with 10 μL of protease inhibitor (Amersham) per 1 mL of RIPA, and collected into 1.5 mL tubes using a cell lifter (Corning). After centrifugation at 4° C. and 9000 rpm for 5 min (MiCRO 17 TR, Hnil Science Industrial Co., Ltd.) to pelletize cell membranes, the supernatants containing proteins were transferred into new 1.5 mL tubes and quantitatively measured for protein level using a Bradford assay.
20 μL of each sample was loaded onto 15% acrylamide gel, prepared using a 1.5 mm Western blotting gel caster (Bio-Rad), and run for 2.5 hrs in the presence of an electric field of 100 V using an electrophoresis power supply (EPS 601, Amersham). The proteins run on the gel were transferred onto a PVDF membrane (Polyvinylidene Difluoride, Millipore) at 400 mA for 2.5 hrs in a transfer tank (Mighty small transphor, Amersham) using an electrophoresis power supply (EPS301, GE healthcare). The PVDF membrane was blocked for 1 hr with 7% skim milk (Difco™ Skim milk, BD) and incubated overnight with a mouse anti-human BDNF monoclonal antibody at a dilution ratio of 1:500. Thereafter, the membrane was washed for 2 hrs 0.05% TBST (Tris-Buffered Saline Tween 20) (this buffer was replaced every hour) and incubated for 1 hr with goat anti-mouse IgG:HRP (IgG:Horseradish Peroxidase Conjugate, SC-2005, Santa Cruz Biotechnology) at a ratio of 1:500. After washing the membrane with 0.05% TBST for 2 hrs (the buffer was replaced every hour), proteins were detected using a chemiluminescent HRP substrate kit (Millipore), and the results are shown in FIG. 2.

Substance	BDNF expression (relative level of BDNF to β-actin vs control)
Met-Asp-Gly [NP-5]	even a very small amount of NP-5 and NP-6 could augment BDNF expression
Met-Thr-Gly [NP-6]	even a very small amount of NP-5 and NP-6 could augment BDNF expression
Val-Gly [NP-9]	used at the same or less than was the amount of the tripeptides so as to induce BDNF expression
